Columns and labels:
Assay in all cases: relative viability (nuclei count vs DMSO), 5 days (fraction); higher = more cells survive
KN-93 + Palbociclib = compound: CN(C/C=C/C1=CC=C(C=C1)Cl)CC2=CC=CC=C2N(CCO)S(=O)(=O)C3=CC=C(C=C3)OC [KN-93] + CC(=O)c1c(C)c2cnc(Nc3ccc(N4CCNCC4)cn3)nc2n(C2CCCC2)c1=O [Palbociclib] (partner 0.5 µM)
Outline: (§1)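 Medians of duplicate plates are given as relative viability. That measure is the nuclei count in treated wells divided by the count in vehicle wells. Counts were taken on 4× images of lung cancer cell lines in 1536-well plates, 5 days after pin-tool dosing the day after seeding with one drug alone or a fixed anchor-drug dose plus five library-drug doses (not always all listed) in √10 steps.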

KN-93 + Bortezomib = compound: CN(C/C=C/C1=CC=C(C=C1)Cl)CC2=CC=CC=C2N(CCO)S(=O)(=O)C3=CC=C(C=C3)OC [KN-93] + CC(C)C[C@H](NC(=O)[C@H](Cc1ccccc1)NC(=O)c1cnccn1)B(O)O [Bortezomib] (partner 0.002 µM)
Outline: as §1

KN-93 + Foretinib = compound: CN(C/C=C/C1=CC=C(C=C1)Cl)CC2=CC=CC=C2N(CCO)S(=O)(=O)C3=CC=C(C=C3)OC [KN-93] + COc1cc2c(Oc3ccc(NC(=O)C4(C(=O)Nc5ccc(F)cc5)CC4)cc3F)ccnc2cc1OCCCN1CCOCC1 [Foretinib] (partner 0.25 µM)
Outline: as §1

KN-93 + Pemetrexed = compound: CN(C/C=C/C1=CC=C(C=C1)Cl)CC2=CC=CC=C2N(CCO)S(=O)(=O)C3=CC=C(C=C3)OC [KN-93] + Nc1nc2[nH]cc(CCc3ccc(C(=O)N[C@@H](CCC(=O)O)C(=O)O)cc3)c2c(=O)[nH]1 [Pemetrexed] (partner 0.2 µM)
Outline: as §1

KN-93 + Decitabine = compound: CN(C/C=C/C1=CC=C(C=C1)Cl)CC2=CC=CC=C2N(CCO)S(=O)(=O)C3=CC=C(C=C3)OC [KN-93] + Nc1ncn([C@H]2C[C@H](O)[C@@H](CO)O2)c(=O)n1 [Decitabine] (partner 2 µM)
Outline: as §1

Cell Line | relative viability (KN-93 + Palbociclib; first compound 0.08 µM) | relative viability (KN-93 + Palbociclib; first compound 0.253 µM) | relative viability (KN-93 + Palbociclib; first compound 2.53 µM) | relative viability (KN-93 + Palbociclib; first compound 8 µM) | relative viability (KN-93 + Bortezomib; first compound 0.08 µM) | relative viability (KN-93 + Bortezomib; first compound 0.253 µM) | relative viability (KN-93 + Bortezomib; first compound 2.53 µM) | relative viability (KN-93 + Bortezomib; first compound 8 µM) | relative viability (KN-93 + Foretinib; first compound 0.08 µM) | relative viability (KN-93 + Foretinib; first compound 0.253 µM) | relative viability (KN-93 + Foretinib; first compound 2.53 µM) | relative viability (KN-93 + Foretinib; first compound 8 µM) | relative viability (KN-93 + Pemetrexed; first compound 0.08 µM) | relative viability (KN-93 + Pemetrexed; first compound 0.253 µM) | relative viability (KN-93 + Pemetrexed; first compound 2.53 µM) | relative viability (KN-93 + Pemetrexed; first compound 8 µM) | relative viability (KN-93 + Decitabine; first compound 0.08 µM) | relative viability (KN-93 + Decitabine; first compound 0.253 µM) | relative viability (KN-93 + Decitabine; first compound 2.53 µM) | relative viability (KN-93 + Decitabine; first compound 8 µM)
201T | 0.359 | 0.376 | 0.367 | 0.306 | 1.11 | 1.15 | 1.07 | 0.554 | 1.06 | 0.711 | 1.08 | 0.566 | 0.327 | 0.315 | 0.32 | 0.323 | 0.866 | 0.887 | 0.758 | 0.583
A549 |  |  |  |  |  |  |  |  | 0.911 | 1.14 | 0.995 | 0.585 |  |  |  |  |  | 0.285 | 0.313 | 0.294
A-427 | 0.555 | 0.533 | 0.511 | 0.41 | 1.04 | 0.99 | 0.982 | 0.852 | 1.06 | 1.11 | 1.04 | 0.807 | 1.05 | 1.01 | 0.941 | 0.776 | 0.579 | 0.511 | 0.546 | 0.496
ABC-1 | 0.691 | 0.64 | 0.571 | 0.336 | 0.322 | 0.247 | 0.287 | 0.26 | 0.956 | 1.17 | 0.873 | 0.314 |  |  |  |  | 1.37 | 1 | 1.17 | 0.411
BEN | 0.482 | 0.448 | 0.523 | 0.465 |  | 0.895 | 1.01 | 0.471 | 0.917 | 0.599 | 0.714 | 0.455 | 0.886 | 0.829 | 0.913 | 0.54 | 0.74 | 0.758 | 0.926 | 0.537
CAL-12T | 0.37 | 0.52 | 0.232 | 0.3 | 1.02 | 1.09 | 0.993 | 0.803 | 1.01 | 1.27 | 1.09 | 0.565 | 1.08 | 1.25 | 0.93 | 1.01 |  |  |  | 
COR-L23 | 0.272 | 0.289 | 0.303 | 0.24 | 0.653 | 1.5 | 1.21 | 0.573 | 0.907 | 1.08 | 1.14 | 0.654 | 0.196 | 0.205 | 0.204 | 0.2 | 0.459 | 0.409 | 0.495 | 0.35
COR-L 105 | 0.456 | 0.412 | 0.391 | 0.333 | 0.798 | 0.836 | 0.914 | 0.378 | 0.987 | 1.05 | 1.02 | 0.73 | 1.07 | 1.02 | 1.31 | 0.832 | 0.635 | 0.657 | 0.667 | 0.634

Reference: the supplement of paper PMC10307832
